{
  "source": "patent US9375438B2",
  "about": "“Inhibitors of NCCa-ATP channels for therapy” (University of Maryland, Baltimore, priority 2007, dated 2016)",
  "key": {"[1]": {"system": "rats with hemi-cervical spinal cord contusion (SCI)", "test": "SCI model: neurobehavioral assessment (inclined plane, paw placement, rearing)", "format": "in vivo, rat", "protocol": "SCI injury model. This study was performed in accordance with the guidelines of the Institutional Animal Care and Use Committee. Adult female Long-Evans rats (275-350 gm) were anesthetized (Ketamine, 60 mg/kg plus Xylazine, 7.5 mg/kg, i.p.). The dura at C4-5 was exposed via a left hemilaminectomy. A hemi-cervical spinal cord contusion was created using a blunt force impactor (1.3-mm impactor head driven by a 10 gm weight dropped vertically 25 mm) (Soblosky et al., 2001; Gensel et al., 2006). After SCI, animals were given 10 ml of glucose-free normal saline s.q. Rectal temperature was maintained at ˜37° C. using a servo-controlled warming blanket.\nFor in vivo gene suppression of SUR1, we used oligodeoxynucleotides that were phosphorothioated at 4 distal bonds to protect against endogenous nucleases (35).\nNeurobehavioral Assessment. All measurements were performed by blinded evaluators. Performance on the inclined plane was evaluated as described (Rivlin and Tator, 1977). To assess paw placement and vertical exploration (rearing) (Nikulina et al., 2004) animals were videotaped while in a translucent cylinder (19×20 cm). Rearing was quantified as the number of seconds spent with both front paws elevated above shoulder-height during a 3-min period of observation."}, "[2]": {"system": "NCCa-ATP channels in bEnd.3 cells", "test": "Perforated-patch whole-cell recording of endothelial cells, Na azide-induced ATP depletion", "format": "cell-based, murine", "conditions": "1 μM glibenclamide; endothelial cells exposed to hypoxic conditions", "protocol": "Patch clamp of endothelial cells was performed using a nystatin-perforated patch technique, to maintain the metabolic integrity of the cells. The identity of the activated channel can be assessed by measurement of the “reversal potential”, the potential at which an ion channel current reverses from inward to outward. With physiologically relevant concentrations of ions intracellularly and extracellularly (high potassium inside, high sodium outside), the reversal potential can unambiguously distinguish between a K^+ channel current such as KATP, which reverses negative to −50 mV and a non-selective cation channel current such as NCCa-ATP, which reverses near 0 mV.\nCell culture. Endothelial cell cultures from human brain microvessels, human aorta (ScienCell Research Laboratories), and murine brain microvessels (bEnd.3; ATCC), were grown at low density using media and supplements recommended by suppliers."}, "[3]": {"conditions": "1, 3 and 7 d post-SCI, glibenclamide vs vehicle"}},
  "data": [
    {"smiles": "COc1ccc(Cl)cc1C(=O)NCCc1ccc(S(=O)(=O)NC(=O)NC2CCCCC2)cc1", "note": "[glibenclamide]", "values": [
      {"measurement": "performance on inclined plane", "setting": "[1]; [3]", "value": "significantly better performance"},
      {"measurement": "vertical exploratory behavior (rearing), performance", "setting": "[1]; [3]", "value": "significantly better performance"},
      {"measurement": "vertical exploratory behavior (rearing)", "setting": "[1]; 1 d post-SCI, additional groups, 14-15 rats/group, 3-min observation", "value": "42 ± 7", "unit": "s"},
      {"measurement": "ipsilateral paw placement", "setting": "[1]; 1 d post-SCI, glibenclamide vs vehicle", "value": "significantly better performance"},
      {"measurement": "mobility / exploratory behavior", "setting": "[1]; post-SCI, vs vehicle-treated rats", "value": "typically ambulatory and often exhibited proficient exploratory behavior"},
      {"measurement": "block of Na azide-induced ohmic current", "setting": "[2]", "value": "blocked"}
    ]}
  ]
}
